{
  "source": "paper PMC8710297",
  "about": "“Identification of potent SENP1 inhibitors that inactivate SENP1/JAK2/STAT signaling pathway and overcome platinum drug resistance in ovarian cancer” (Clinical and Translational Medicine, 2021)",
  "target": "T1, SENP1(C603A) (Homo sapiens, UniProt Q9P0U3, C603A)",
  "T1 construct": "GST; made in house",
  "T1 sequence (Q9P0U3 1-644 C603A)": "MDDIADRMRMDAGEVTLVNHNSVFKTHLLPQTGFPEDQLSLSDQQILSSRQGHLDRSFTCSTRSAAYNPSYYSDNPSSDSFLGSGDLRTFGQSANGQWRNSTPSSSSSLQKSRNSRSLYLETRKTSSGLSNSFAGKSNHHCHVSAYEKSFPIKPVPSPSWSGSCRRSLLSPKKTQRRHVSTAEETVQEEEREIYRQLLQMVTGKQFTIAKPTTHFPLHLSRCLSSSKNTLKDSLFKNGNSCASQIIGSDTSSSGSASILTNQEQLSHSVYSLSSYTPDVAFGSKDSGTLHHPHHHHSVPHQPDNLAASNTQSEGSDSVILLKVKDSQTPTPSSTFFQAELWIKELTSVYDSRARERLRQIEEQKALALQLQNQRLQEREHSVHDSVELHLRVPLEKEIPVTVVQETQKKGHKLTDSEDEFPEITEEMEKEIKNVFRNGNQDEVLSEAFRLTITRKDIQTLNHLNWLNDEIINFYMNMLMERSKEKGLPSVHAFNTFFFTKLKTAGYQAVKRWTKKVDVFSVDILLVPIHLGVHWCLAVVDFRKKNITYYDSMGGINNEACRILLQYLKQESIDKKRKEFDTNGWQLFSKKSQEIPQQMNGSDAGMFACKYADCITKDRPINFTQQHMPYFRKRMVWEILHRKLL",
  "assay": "In vitro thermal shift assay with mutant GST-SENP1(C603A)",
  "format": "binding",
  "conditions": "compared to DMSO",
  "description": "FIGURE 2 UA directly interacts with Sentrin‐specific protease 1 (SENP1). (A) Cellular thermal shift assay to examine the interaction of UA with SENP1. IGROV1 CR cells pretreated with MG132 (10 μM, 1 h) were incubated with DMSO or UA for 4 h before being shifted to indicated temperatures. SENP1 stability was analyzed by using Western blot against SENP1 antibody. Right panel, quantification of non‐denatured SENP1 fraction shown in the left panel. (B) Cell‐free thermal shift assay to examine interactions of UA with SENP1. Purified SENP1 proteins were incubated with DMSO or UA for 4 h before being shifted to the indicated temperatures. SENP1 stability was analyzed by using Western blot against SENP1 antibody. Right panel, quantification of non‐denatured SENP1 fraction shown in the left panel. (C) The predicted docking pose of UA (C: green; H: white; O: red) at the hydrophobic catalytic cleft of SENP1 (C: salmon; H: white; O: red; N: blue). Key amino acid residues were highlighted. […] Stability of SENP1(C603A) was analyzed by using Western blot against SENP1 antibody. […] Left; Ultra‐high performance liquid‐chromatography‐MS/MS analyses of associated UA in indicated samples, right; quantification of data shown in left (the binding affinity of UA with SENP1‐C603A was normalized as 1). […]\nThe qu anti ficatio n of immunohistochemical sta in ing wa s scored blindly at lea st by two independent obser vers. […]",
  "data": [
    {"smiles": "C[C@H]1[C@H](C)CC[C@]2(C(=O)O)CC[C@]3(C)C(=CC[C@@H]4[C@@]5(C)CC[C@H](O)C(C)(C)[C@@H]5CC[C@]43C)[C@H]12", "note": "[UA, ursolic acid, reference compound]", "values": [
      {"measurement": "thermal stability of purified mutant SENP1(C603A)", "value": "not increased"}
    ]},
    {"smiles": "CC1(C)CC[C@]2(C(=O)O)CC[C@]3(C)C(=CC[C@@H]4[C@@]5(C)CC[C@H](O[C@@H]6O[C@H](C(=O)O)[C@@H](O)[C@H](O[C@@H]7OC[C@@H](O)[C@H](O)[C@H]7O)[C@H]6O)C(C)(C)[C@@H]5CC[C@]43C)[C@@H]2C1", "note": "[Mc, Momordin Ιc]", "values": [
      {"measurement": "thermal stability of purified mutant SENP1(C603A)", "value": "not increased"}
    ]}
  ]
}
